The results in this text go back to patent publication US9988397B2, “ERK inhibitors” (Merck Sharp & Dohme Corp., priority 2014, dated 2018).

The term IC50 denotes the concentration at which inhibition is half-maximal.

This assay deals with phosphorylated active hERK2 enzyme (Homo sapiens, UniProt P28482). Put plainly: Active human ERK2 (hERK2) Activity Assay (IMAP-FP). Format: biochemical. Conditions: 10 point titration, 3 μM starting concentration, 0.5 nM hERK2, 30 μM ATP, 60 minutes reaction.
phosphorylated active hERK2 enzyme, sequence (P28482 whole entry): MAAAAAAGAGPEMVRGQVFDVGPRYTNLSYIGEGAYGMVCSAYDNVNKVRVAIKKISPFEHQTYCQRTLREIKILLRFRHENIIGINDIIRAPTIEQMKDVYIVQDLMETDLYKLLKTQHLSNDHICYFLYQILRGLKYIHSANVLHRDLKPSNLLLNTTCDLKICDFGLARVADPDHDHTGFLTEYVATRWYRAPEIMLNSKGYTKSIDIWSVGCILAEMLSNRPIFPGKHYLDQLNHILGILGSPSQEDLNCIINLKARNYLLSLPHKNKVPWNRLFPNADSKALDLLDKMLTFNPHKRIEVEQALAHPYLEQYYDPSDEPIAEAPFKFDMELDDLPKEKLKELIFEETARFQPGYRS

Protocol: Activated ERK2 activity was determined in an IMAP-FP assay (Molecular Devices). Using this assay format, the potency (IC50) of each compound was determined from a 10 point (1:3 serial dilution, 3 μM starting compound concentration) titration curve using the following outlined procedure. […] Following a 15 minute compound & enzyme incubation, each reaction was initiated by the addition of 10 μL kinase buffer containing 2.45 μM ERK2 IMAP substrate peptides and 75 μM ATP. The final reaction in each well of 25 μL consists of 0.5 nM hERK2, 900 nM unlabeled peptide, 80 nM labeled-peptide, and 30 μM ATP. Phosphorylation reactions were allowed to proceed for 60 minutes and were immediately quenched by the addition of 60 μL IMAP detection beads (1:1000 dilutions) in IMAP binding buffer (Molecular Devices) with 24 mM NaCl. Plates were read on EnVision reader after 60 minutes binding equilibration using Fluorescence Polarization protocol (Perkin Elmer).

Regarding `CCn1ncc2cc3nc(c21)OCCC[C@@H](O)[C@H](c1ccccc1)NC(=O)N3` [Example 26, (9S,10R)-1-Ethyl-10-hydroxy-9-phenyl-1,6,8,9,10,11,12,13-octahydro-7H-5,15-(azeno)pyrazolo[3,4-c][1,7,9]oxadiazacyclotetradecin-7-one], the IC50 was 118 nM.

For `Cn1ncc2cc3nc(c21)OCCCC[C@H](c1ccccc1)NC(=O)N3` [Example 17, (9R)-1-Methyl-9-phenyl-1,6,8,9,10,11,12,13-octahydro-7H-5,15-(azeno)pyrazolo [3,4-c][1,7,9]oxadiazacyclotetradecin-7-one], the half-maximal inhibitory concentration (IC50) was 58.9 nM.

Compound `CCn1ncc2cc3nc(c21)CCCO[C@@H](CO)[C@@H](c1ccccc1)NC(=O)N3` [Example 13, (9R,10R)-1-Ethyl-10-(hydroxymethyl)-9-phenyl-1,6,9,10,13,14-hexahydro-12H-5,15-(azeno)pyrazolo[4,3-i][1,4,6]oxadiazacyclotetradecin-7(8H)-one] came in with a concentration for half-maximal inhibition (IC50) of 757 nM.

In turn, `CCn1ncc2cc3nc(c21)CCCO[C@@H]([C@@H](C)O)[C@@H](c1ccccc1)NC(=O)N3` [Example 47, (9R,10R)-1-Ethyl-10-[(1R)-1-hydroxyethyl]-9-phenyl-1,6,9,10,13,14-hexahydro-12H-5,15-(azeno)pyrazolo[4,3-i][1,4,6]oxadiazacyclotetradecin-7(8H)-one] had a 50% inhibitory concentration (IC50) of 687 nM.

In turn, `CN1CCCc2nc(cc3cnn(C)c23)NC(=O)N[C@@H](c2ccccc2)C1` [Example 15, (9S)-1,11-Dimethyl-9-phenyl-1,6,9,10,11,12,13,14-octahydro-5,15-(azeno)pyrazolo[3,4-k][1,3,6]triazacyclotetradecin-7(8H)-one] registered an IC50 of 56.8 nM.

`Cc1c2nnn1Cc1nc(cc3cnn(C)c13)NC(=O)NC(c1ccccc1)C2` (centres unmarked) [Example 40, 1,18-Dimethyl-9-phenyl-1,6,9,10-tetrahydro-5,16-(azeno)-14,11-(metheno)pyrazolo[4,3-l][1,2,3,7,9]pentaazacyclopentadecin-7(8H,15H)-one] returned an IC50 of 1950 nM.

`CCn1ncc2cc3nc(c21)C[C@H](O)COC[C@H](c1cccc(Cl)c1)NC(=O)N3` [Example 56, (9S,13S)-9-(3-chlorophenyl)-1-ethyl-13-hydroxy-1,6,9,10,13,14-hexahydro-12H-5,15-(azeno)pyrazolo[4,3-i][1,4,6]oxadiazacyclotetradecin-7(8H)-one] registered an IC50 of 0.996 nM.

For the compound `Cn1ncc2cc3nc(c21)Cn1cc(nn1)CC(c1ccccc1)NC(=O)N3` (centres unmarked) [Example 34, 1-methyl-9-phenyl-1,6,9,10-tetrahydro-5,16-(azeno)-14,11-(metheno)pyrazolo[4,3-l][1,2,3,7,9]pentaazacyclopentadecin-7(8H,15H)-one], the 50% inhibitory concentration (IC50) came to 89.9 nM.

Compound `CCn1ncc2cc3nc(c21)/C=C\COC(C)(C)[C@H](c1ccccc1)NC(=O)N3` [Example 41, (9S,13Z)-1-Ethyl-10,10-dimethyl-9-phenyl-1,6,9,10-tetrahydro-12H-5,15-(azeno)pyrazolo [4,3-i][1,4,6]oxadiazacyclotetradecin-7(8H)-one] yielded an IC50 of 634 nM.

Consider `CCn1ncc2cc3nc(c21)CCCO[C@H](CO)[C@H](c1ccccc1)NC(=O)N3` [Example 14, (9S,10S)-1-Ethyl-10-(hydroxymethyl)-9-phenyl-1,6,9,10,13,14-hexahydro-12H-5,15-(azeno)pyrazolo[4,3-i][1,4,6]oxadiazacyclotetradecin-7(8H)-one], for which the IC50 is 3.44 nM.

In turn, `CCn1ncc2cc3nc(c21)C[C@@H](O)COC[C@H](c1ccc(OC)c(F)c1)NC(=O)N3` [Example 49, (9S,13R)-1-Ethyl-9-(3-fluoro-4-methoxyphenyl)-13-hydroxy-1,6,9,10,13,14-hexahydro-12H-5,15-(azeno)pyrazolo[4,3-i][1,4,6]oxadiazacyclotetradecin-7(8H)-one] had a half-maximal inhibitory concentration (IC50) of 3.4 nM.

`Cn1ncc2cc3nc(c21)Cn1cc(nn1)C[C@H](c1ccccc1)NC(=O)N3` [Example 35, (9R)-1-Methyl-9-phenyl-1,6,9,10-tetrahydro-5,16-(azeno)-14,11-(metheno)pyrazolo[4,3-l][1,2,3,7,9]pentaazacyclopentadecin-7(8H,15H)-one] came in with a 50% inhibitory concentration (IC50) of 69.4 nM.

Compound `C=C1COC[C@H](c2ccccc2)NC(=O)Nc2cc3cnn(CC)c3c(n2)C1` [Example 57, (9 S)-1-ethyl-13-methylidene-9-phenyl-1,6,9,10,13,14-hexahydro-12H-5,15-(azeno)pyrazolo[4,3-i][1,4,6]oxadiazacyclotetradecin-7(8H)-one] yielded a 50% inhibitory concentration (IC50) of 5.17 nM.

Take `CCn1ncc2cc3nc(c21)C[C@@H](O)COC[C@H](c1cccc(Cl)c1)NC(=O)N3` [Example 55, (9S,13R)-9-(3-chlorophenyl)-1-ethyl-13-hydroxy-1,6,9,10,13,14-hexahydro-12H-5,15-(azeno)pyrazolo[4,3-i][1,4,6]oxadiazacyclotetradecin-7(8H)-one]: the IC50 was determined as 3.83 nM.
